US9452990B2, “Complement pathway modulators and uses thereof” (NOVARTIS AG, priority 2012, dated 2016)
Structures can show the parent of a compound that is named as a salt.

Target: human complement factor B (CVF-Bb complex) (Homo sapiens (Human), UniProt P00751)
Assay: Human Complement Factor B ELISA Assay
Type: biochemical
Conditions: not given
Description: Human Complement Factor B ELISA Assay
CVF-Bb complex prepared from purified cobra venom factor (1 μM), recombinant human complement factor B (expressed in drosophila cells and purified using standard methods) and human complement factor D (expressed in E. Coli, refolded and purified using standard methods). CVF-Bb complex at 3 nM concentration was incubated with test compound at various concentrations for 1 hour at room temperature in PBS pH 7.4 containing 10 mM MgCl2 and 0.05% (w/v) CHAPS. Human complement C3 substrate purified from plasma was added to a final concentration of 1 μM. After 1 hour incubation at room temperature, the enzyme reaction was stopped by addition of a cocktail of concentrated pan-protease inhibitors. The product of the reaction, C3a, was quantified by means of an enzyme-linked-immunosorbent assay. IC50 values were calculated from percentage of inhibition of CVF-Bb activity as a function of test compound concentration.

Question: With `COc1cc2c(N)nc(N3CCN(C(=O)C[C@@H](N)c4ccco4)CC3)nc2c(F)c1OC` [Example 34, (R)-3-Amino-1-[4-(4-amino-8-fluoro-6,7-dimethoxy-quinazolin-2-yl)-piperazin-1-yl]-3-furan-2-yl-propan-1-one hydrochloride] as the molecule, how does the IC50 read?
Answer: Its IC50 is 90 nM.

Question: With `COc1cc2c(N)nc(N3CCN(C(=O)C[C@@H](N)c4ccoc4)CC3)nc2c(F)c1OC` [Example 35, (R)-3-Amino-1-[4-(4-amino-8-fluoro-6,7-dimethoxy-quinazolin-2-yl)piperazin-1-yl]-3-furan-3-yl-propan-1-one hydrochloride] as the molecule, how does the IC50 read?
Answer: The IC50 was 310 nM.

Question: With `COc1cc2c(N)nc(N3CCN(C(=O)C[C@@H](N)c4cccs4)CC3)nc2c(F)c1OC` [Example 36, (R)-3-Amino-1-[4-(4-amino-8-fluoro-6,7-dimethoxy-quinazolin-2-yl)-piperazin-1-yl]-3-thiophen-2-yl-propan-1-one hydrochloride] as the molecule, how does the IC50 read?
Answer: Its IC50 is 190 nM.

Question: For `C#Cc1ccc([C@H](N)CC(=O)N2CCN(c3nc(N)c4cc(OC)c(OC)c(F)c4n3)CC2)cc1` [Example 42, (R)-3-Amino-1-[4-(4-amino-8-fluoro-6,7-dimethoxy-quinazolin-2-yl)-piperazin-1-yl]-3-(4-ethynyl-phenyl)-propan-1-one hydrochloride], which IC50 is on record?
Answer: Its IC50 is 510 nM.

Question: `COc1cc2c(N)nc(N3CCN(C(=O)C[C@@H](N)c4ccc(C#N)cc4)CC3)nc2c(F)c1OC` [Example 44, 4-{(R)-1-Amino-3-[4-(4-amino-8-fluoro-6,7-dimethoxy-quinazolin-2-yl)piperazin-1-yl]-3-oxo-propyl}-benzonitrile hydrochloride] was tested. Which IC50 did it give?
Answer: The IC50 was 10 nM.

Question: Which IC50 does the source give for `COc1cc2c(N)nc(N3CCN(C(=O)C[C@@H](N)c4ccc(Cl)cc4)CC3)nc2c(F)c1OC` [Example 48, (R)-3-Amino-1-[4-(4-amino-8-fluoro-6,7-dimethoxy-quinazolin-2-yl)-piperazin-1-yl]-3-(4-chloro-phenyl)-propan-1-one hydrochloride] here?
Answer: The IC50 was 90 nM.

Question: How did the IC50 turn out when `COc1cc2c(N)nc(N3CCN(C(=O)C[C@@H](N)c4ccc(Br)cc4)CC3)nc2c(F)c1OC` [Example 49, (R)-3-Amino-1-[4-(4-amino-8-fluoro-6,7-dimethoxy-quinazolin-2-yl)-piperazin-1-yl]-3-(4-bromo-phenyl)-propan-1-one hydrochloride] was run?
Answer: Its IC50 is 60 nM.

Question: Which IC50 does the source give for `COc1cc2c(N)nc(N3CCN(C(=O)C[C@@H](N)c4ccc(F)cc4F)CC3)nc2c(F)c1OC` [Example 50, (R)-3-Amino-1-[4-(4-amino-8-fluoro-6,7-dimethoxy-quinazolin-2-yl)-piperazin-1-yl]-3-(2,4-difluoro-phenyl)-propan-1-one hydrochloride] here?
Answer: The IC50 was 450 nM.

Question: How did the IC50 turn out when `COc1cc2c(N)nc(N3CCN(C(=O)C[C@@H](N)c4ccc(F)c(F)c4)CC3)nc2c(F)c1OC` [Example 51, (R)-3-Amino-1-[4-(4-amino-8-fluoro-6,7-dimethoxy-quinazolin-2-yl)piperazin-1-yl]-3-(3,4-difluoro-phenyl)-propan-1-one hydrochloride] was run?
Answer: The IC50 was 180 nM.

Question: Which IC50 does the source give for `COc1cc2c(N)nc(N3CCN(C(=O)C[C@@H](N)c4ccc(F)c(Cl)c4)CC3)nc2c(F)c1OC` [Example 52, (R)-3-Amino-1-[4-(4-amino-8-fluoro-6,7-dimethoxy-quinazolin-2-yl)-piperazin-1-yl]-3-(3-chloro-4-fluoro-phenyl)-propan-1-one hydrochloride] here?
Answer: The IC50 was 110 nM.

Question: Which IC50 does the source give for `COc1cc2c(N)nc(N3CCN(C(=O)C[C@@H](N)c4ccc(C(F)F)cc4)CC3)nc2c(F)c1OC` [Example 53, (R)-3-Amino-1-[4-(4-amino-8-fluoro-6,7-dimethoxy-quinazolin-2-yl)piperazin-1-yl]-3-(4-difluoromethyl-phenyl)-propan-1-one hydrochloride] here?
Answer: The IC50 was 50 nM.

Question: `COc1cc2c(N)nc(N3CCN(C(=O)C[C@@H](N)c4ccc(C(F)(F)F)cc4)CC3)nc2c(F)c1OC` [Example 55, (R)-3-Amino-1-[4-(4-amino-8-fluoro-6,7-dimethoxy-quinazolin-2-yl)piperazin-1-yl]-3-(4-trifluoromethyl-phenyl)-propan-1-one hydrochloride] was tested. Which IC50 did it give?
Answer: The IC50 was 160 nM.

Question: For `COc1cc2c(N)nc(N3CCN(C(=O)C[C@@H](N)CC(C)C)C[C@@H]3C)nc2c(F)c1OC` [Example 56, (S)-3-Amino-1-[(S)-4-(4-amino-8-fluoro-6,7-dimethoxy-quinazolin-2-yl)-3-methyl-piperazin-1-yl]-5-methyl-hexan-1-one hydrochloride], which IC50 is on record?
Answer: Its IC50 is 240 nM.

Question: Which IC50 does the source give for `COc1cc2c(N)nc(N3CCN(C(=O)C[C@@H](N)c4ccccc4)C[C@@H]3C)nc2c(F)c1OC` [Example 57, (R)-3-Amino-1-[(S)-4-(4-amino-8-fluoro-6,7-dimethoxy-quinazolin-2-yl)-3-methyl-piperazin-1-yl]-3-phenyl-propan-1-one hydrochloride] here?
Answer: Its IC50 is 210 nM.

Question: For `COc1cc2c(N)nc(N3CCN(C(=O)C[C@@H](N)c4ccc(C#N)cc4)C[C@@H]3C)nc2c(F)c1OC` [Example 58, 4-{(R)-1-Amino-3-[(S)-4-(4-amino-8-fluoro-6,7-dimethoxy-quinazolin-2-yl)-3-methyl-piperazin-1-yl]-3-oxo-propyl}-benzonitrile hydrochloride], which IC50 is on record?
Answer: The IC50 was 9 nM.

Question: With `COc1cc2c(N)nc(N3CCN(C(=O)C[C@@H](N)c4ccccc4F)C[C@@H]3C)nc2c(F)c1OC` [Example 59, (R)-3-Amino-1-[(S)-4-(4-amino-8-fluoro-6,7-dimethoxy-quinazolin-2-yl)-3-methyl-piperazin-1-yl]-3-(2-fluoro-phenyl)-propan-1-one hydrochloride] as the molecule, how does the IC50 read?
Answer: The IC50 was 160 nM.

Question: For `COc1cc2c(N)nc(N3CCN(C(=O)C[C@@H](N)c4ccc(F)cc4)C[C@@H]3C)nc2c(F)c1OC` [Example 60, (R)-3-Amino-1-[(S)-4-(4-amino-8-fluoro-6,7-dimethoxy-quinazolin-2-yl)-3-methyl-piperazin-1-yl]-3-(4-fluoro-phenyl)-propan-1-one hydrochloride], which IC50 is on record?
Answer: Its IC50 is 20 nM.

Question: How did the IC50 turn out when `COc1cc2c(N)nc(N3CCN(C(=O)C[C@@H](N)c4ccc(C(F)(F)F)cc4)C[C@@H]3C)nc2c(F)c1OC` [Example 61, (R)-3-Amino-1-[(S)-4-(4-amino-8-fluoro-6,7-dimethoxy-quinazolin-2-yl)-3-methyl-piperazin-1-yl]-3-(4-trifluoromethyl-phenyl)-propan-1-one hydrochloride] was run?
Answer: Its IC50 is 40 nM.

Same assay, conditions: CVF-Bb complex 3 nM, 1 hour preincubation with compound at room temperature, human C3 substrate 1 μM, C3a quantified by ELISA; read-out: Factor B IC50

Question: Which IC50 does the source give for `COc1cc2c(N)nc(N3CCN(C(=O)C[C@@H](N)CC(C)C)CC3)nc2c(F)c1OC` [Example 33, (S)-3-Amino-1-[4-(4-amino-8-fluoro-6,7-dimethoxy-quinazolin-2-yl)-piperazin-1-yl]-5-methyl-hexan-1-one] here?
Answer: The IC50 was 680 nM.

Question: For `COc1cc2c(N)nc(N3CCN(C(=O)C[C@@H](N)c4ccsc4)CC3)nc2c(F)c1OC` [Example 37, (R)-3-Amino-1-[4-(4-amino-8-fluoro-6,7-dimethoxy-quinazolin-2-yl)-piperazin-1-yl]-3-thiophen-3-yl-propan-1-one], which IC50 is on record?
Answer: The IC50 was 40 nM.

Question: With `COc1cc2c(N)nc(N3CCN(C(=O)C[C@@H](N)c4ccc(C)s4)CC3)nc2c(F)c1OC` [Example 38, (R)-3-Amino-1-[4-(4-amino-8-fluoro-6,7-dimethoxy-quinazolin-2-yl)piperazin-1-yl]-3-(5-methyl-thiophen-2-yl)-propan-1-one] as the molecule, how does the IC50 read?
Answer: The IC50 was 180 nM.

Question: With `COc1cc2c(N)nc(N3CCN(C(=O)C[C@@H](N)c4ccccc4)CC3)nc2c(F)c1OC` [Example 39, (R)-3-Amino-1-[4-(4-amino-8-fluoro-6,7-dimethoxy-quinazolin-2-yl)-piperazin-1-yl]-3-phenyl-propan-1-one] as the molecule, how does the IC50 read?
Answer: Its IC50 is 230 nM.

Question: For `COc1cc2c(N)nc(N3CCN(C(=O)C[C@@H](N)c4cccc(C)c4)CC3)nc2c(F)c1OC` [Example 40, (R)-3-Amino-1-[4-(4-amino-8-fluoro-6,7-dimethoxy-quinazolin-2-yl)-piperazin-1-yl]-3-m-tolyl-propan-1-one], which IC50 is on record?
Answer: Its IC50 is 220 nM.

Question: Which IC50 does the source give for `COc1cc2c(N)nc(N3CCN(C(=O)C[C@@H](N)c4ccc(C)cc4)CC3)nc2c(F)c1OC` [Example 41, (R)-3-Amino-1-[4-(4-amino-8-fluoro-6,7-dimethoxy-quinazolin-2-yl)-piperazin-1-yl]-3-p-tolyl-propan-1-one] here?
Answer: The IC50 was 70 nM.

Question: Which IC50 does the source give for `COc1cc2c(N)nc(N3CCN(C(=O)C[C@@H](N)c4cccc(C#N)c4)CC3)nc2c(F)c1OC` [Example 43, 3-{(R)-1-Amino-3-[4-(4-amino-8-fluoro-6,7-dimethoxy-quinazolin-2-yl)-piperazin-1-yl]-3-oxo-propyl}-benzonitrile] here?
Answer: Its IC50 is 40 nM.

Question: `COc1cc2c(N)nc(N3CCN(C(=O)C[C@@H](N)c4cccc(F)c4)CC3)nc2c(F)c1OC` [Example 45, (R)-3-Amino-1-[4-(4-amino-8-fluoro-6,7-dimethoxy-quinazolin-2-yl)-piperazin-1-yl]-3-(3-fluoro-phenyl)-propan-1-one] was tested. Which IC50 did it give?
Answer: Its IC50 is 50 nM.

Question: With `COc1cc2c(N)nc(N3CCN(C(=O)C[C@@H](N)c4ccc(F)cc4)CC3)nc2c(F)c1OC` [Example 46, (R)-3-Amino-1-[4-(4-amino-8-fluoro-6,7-dimethoxy-quinazolin-2-yl)-piperazin-1-yl]-3-(4-fluoro-phenyl)-propan-1-one] as the molecule, how does the IC50 read?
Answer: The IC50 was 40 nM.

Question: With `COc1cc2c(N)nc(N3CCN(C(=O)C[C@@H](N)c4cccc(Cl)c4)CC3)nc2c(F)c1OC` [Example 47, (R)-3-Amino-1-[4-(4-amino-8-fluoro-6,7-dimethoxy-quinazolin-2-yl)-piperazin-1-yl]-3-(3-chloro-phenyl)-propan-1-one] as the molecule, how does the IC50 read?
Answer: The IC50 was 110 nM.

Question: How did the IC50 turn out when `COc1cc2c(N)nc(N3CCN(C(=O)C[C@@H](N)c4cccc(C(F)(F)F)c4)CC3)nc2c(F)c1OC` [Example 54, (R)-3-Amino-1-[4-(4-amino-8-fluoro-6,7-dimethoxy-quinazolin-2-yl)-piperazin-1-yl]-3-(3-trifluoromethyl-phenyl)-propan-1-one] was run?
Answer: The IC50 was 260 nM.
